Assay results published in patent US20260174778A1, “SULFONAMIDE COMPOUND, AND PREPARATION METHOD THEREFOR AND USE THEREOF” (SHANGHAI HENLIUS BIOTECH, INC., priority 2023, published 2026).
Like-named read-outs stand apart in the source and are kept apart here.

How the values were obtained:
KAT7 = target: T1, KAT7 (Homo sapiens, UniProt O95251); experiment: Inhibition of human KAT enzymes, radioisotope method: KAT7; assay type: biochemical; settings: for Ki: KAT7 (full-length), radioisotope method; for KAT7/ KAT6A / KAT7/ KAT6B: selectivity, ratio of Ki
T1 construct: purchased ACTIVE MOTIF 31889
T1 sequence (O95251 whole entry): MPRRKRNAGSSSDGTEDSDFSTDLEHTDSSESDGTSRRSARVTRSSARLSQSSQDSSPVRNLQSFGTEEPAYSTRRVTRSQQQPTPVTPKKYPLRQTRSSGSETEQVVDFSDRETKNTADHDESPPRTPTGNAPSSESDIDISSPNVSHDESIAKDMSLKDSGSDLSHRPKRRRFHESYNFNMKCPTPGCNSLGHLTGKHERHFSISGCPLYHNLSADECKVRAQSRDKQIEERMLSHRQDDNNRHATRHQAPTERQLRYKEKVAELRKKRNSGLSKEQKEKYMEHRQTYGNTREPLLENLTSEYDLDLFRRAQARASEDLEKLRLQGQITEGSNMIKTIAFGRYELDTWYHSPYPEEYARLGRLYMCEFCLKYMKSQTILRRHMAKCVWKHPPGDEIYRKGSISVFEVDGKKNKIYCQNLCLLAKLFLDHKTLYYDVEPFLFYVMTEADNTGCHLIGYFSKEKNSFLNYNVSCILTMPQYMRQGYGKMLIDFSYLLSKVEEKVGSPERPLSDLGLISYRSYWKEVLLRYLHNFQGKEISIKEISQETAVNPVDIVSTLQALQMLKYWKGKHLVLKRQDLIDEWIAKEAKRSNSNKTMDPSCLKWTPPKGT
Description: (§1) Test Example 2: Selective Inhibitory Effects of Test Compounds on Human KAT6 Enzymes (Radioisotope Method)
(§2) • 1. KAT6A (ACTIVE MOTIF, Cat. No. 81223) • 2. KAT5 (BPS, Cat. No. 79422) • 3. KAT7 (ACTIVE MOTIF, Cat. No. 31889) • 4. KAT6B (ACTIVE MOTIF, Cat. No. 81224) • 5. Acetyl coenzyme A, [Acetyl-^3H, 250 μCi (9.25 MBq](PEIRKIN4 ELMER, Cat. No. NET290250UC) • 6. Acetyl coenzyme A (CAYMVAN, Cat. No. 16160) • 7. 384-well Flashplate (Perkin Elmer, Cat. No. SMP410A001PK) • 8. Garcinol (MCE, Cat. No. HY-107569) • 9. Automatic microplate pipetting system (Precision, PRC384U, BioTek) • 10. Ultrasonic nanoliter liquid handling system (Echo 650 Liquid Handler, Echo 650, Labcyte) • 11. Centrifuge (Avanti J-15R, Beckman Coulter) • 12. Liquid scintillation counter (Microplate Counter, Microbeta2, Perkin Elmer)
(§3) • 1. For KAT6A and KAT7, a 1× assay buffer was prepared as follows: 10 mM Tris-HCl pH 8.0, 0.01% Tween-20, and 1 mM DTT; for KAT6B and KAT5, a 1× assay buffer was prepared as follows: 50 mM Tris-HCl pH 8.0, 0.05% Tween-20, and 1 mM DTT. • 2. Compound preparation: For KAT6A, KAT6B, and KAT7, the final concentration of the compounds started at 1 μM, followed by a 5-fold serial dilution across a total of 7 concentration gradients; for KAT5, the final concentration of the compounds started at 10 μM, followed by a 5-fold serial dilution across a total of 7 concentration gradients. • 3. Substrate reaction solution preparation: The mixed substrates of H4 peptide and [3H]acetyl coenzyme A at final concentrations were prepared using the respective 1× assay buffers, as shown in Table 4.
(§4) • 1. The enzyme solution was transferred to 384-well reaction plates at 10 μL/well. For each negative control well, 10 μL of the 1× assay buffer was transferred. The plates were then centrifuged at 1000 RPM for 1 min and incubated at room temperature for 15 min. • 2. The substrate reaction solution was added at 10 μL/well, and the plates were centrifuged at 1000 RPM for 1 min to start the reaction. • 3. The samples for KAT6A, KAT6B, KAT7, KAT8, and KAT5 were then incubated at room temperature for 60 min, 120 min, 45 min, 60 min, and 120 min, respectively. • 4. Stop solution preparation: A stop solution was prepared by diluting 50 µM cold Ac-CoA in 1× buffer. • 5. The stop solution was added at 10 μL/well, and the plates were centrifuged at […] for 1 min to stop the reaction. • 6. The mixtures in the reaction plates were transferred at 25 μL/well to new plates (Streptavidin FlashPlate HTS PLUS, High Capacity, 384-well). • 7. The plates were incubated at room temperature for at least 60 min and then • 8. read using MicroBeta2.
(§5) Raw data were obtained in EXCEL, and the inhibition rates were calculated:
(§6) [formula] [formula] • Max signal: reaction signal from enzyme and substrate; • Sample signal: signal from sample; • Min signal: signal from substrate only (negative control).
(§7) The inhibition rate data were imported into XLFit Excel, and IC50 values were obtained using formula (2):
(§8) [formula] [formula] • Top: value of the top plateau of the fitted regression curve; • Bottom: value of the bottom plateau of the fitted regression curve; • HillSlope: slope of the fitted regression curve.
(§9) The IC50 value was substituted into formula (3) to obtain the enzymatic activity inhibition constant Ki:
(§10) [formula] • [S]: substrate concentration; Km: Michaelis constant.

KAT6B = target: T2, KAT6B (Homo sapiens, UniProt Q8WYB5); experiment: Inhibition of human KAT enzymes, radioisotope method: KAT6B; assay type: biochemical; settings: KAT6B (718-1008)
T2 construct: purchased ACTIVE MOTIF 81224
T2 sequence (Q8WYB5 whole entry): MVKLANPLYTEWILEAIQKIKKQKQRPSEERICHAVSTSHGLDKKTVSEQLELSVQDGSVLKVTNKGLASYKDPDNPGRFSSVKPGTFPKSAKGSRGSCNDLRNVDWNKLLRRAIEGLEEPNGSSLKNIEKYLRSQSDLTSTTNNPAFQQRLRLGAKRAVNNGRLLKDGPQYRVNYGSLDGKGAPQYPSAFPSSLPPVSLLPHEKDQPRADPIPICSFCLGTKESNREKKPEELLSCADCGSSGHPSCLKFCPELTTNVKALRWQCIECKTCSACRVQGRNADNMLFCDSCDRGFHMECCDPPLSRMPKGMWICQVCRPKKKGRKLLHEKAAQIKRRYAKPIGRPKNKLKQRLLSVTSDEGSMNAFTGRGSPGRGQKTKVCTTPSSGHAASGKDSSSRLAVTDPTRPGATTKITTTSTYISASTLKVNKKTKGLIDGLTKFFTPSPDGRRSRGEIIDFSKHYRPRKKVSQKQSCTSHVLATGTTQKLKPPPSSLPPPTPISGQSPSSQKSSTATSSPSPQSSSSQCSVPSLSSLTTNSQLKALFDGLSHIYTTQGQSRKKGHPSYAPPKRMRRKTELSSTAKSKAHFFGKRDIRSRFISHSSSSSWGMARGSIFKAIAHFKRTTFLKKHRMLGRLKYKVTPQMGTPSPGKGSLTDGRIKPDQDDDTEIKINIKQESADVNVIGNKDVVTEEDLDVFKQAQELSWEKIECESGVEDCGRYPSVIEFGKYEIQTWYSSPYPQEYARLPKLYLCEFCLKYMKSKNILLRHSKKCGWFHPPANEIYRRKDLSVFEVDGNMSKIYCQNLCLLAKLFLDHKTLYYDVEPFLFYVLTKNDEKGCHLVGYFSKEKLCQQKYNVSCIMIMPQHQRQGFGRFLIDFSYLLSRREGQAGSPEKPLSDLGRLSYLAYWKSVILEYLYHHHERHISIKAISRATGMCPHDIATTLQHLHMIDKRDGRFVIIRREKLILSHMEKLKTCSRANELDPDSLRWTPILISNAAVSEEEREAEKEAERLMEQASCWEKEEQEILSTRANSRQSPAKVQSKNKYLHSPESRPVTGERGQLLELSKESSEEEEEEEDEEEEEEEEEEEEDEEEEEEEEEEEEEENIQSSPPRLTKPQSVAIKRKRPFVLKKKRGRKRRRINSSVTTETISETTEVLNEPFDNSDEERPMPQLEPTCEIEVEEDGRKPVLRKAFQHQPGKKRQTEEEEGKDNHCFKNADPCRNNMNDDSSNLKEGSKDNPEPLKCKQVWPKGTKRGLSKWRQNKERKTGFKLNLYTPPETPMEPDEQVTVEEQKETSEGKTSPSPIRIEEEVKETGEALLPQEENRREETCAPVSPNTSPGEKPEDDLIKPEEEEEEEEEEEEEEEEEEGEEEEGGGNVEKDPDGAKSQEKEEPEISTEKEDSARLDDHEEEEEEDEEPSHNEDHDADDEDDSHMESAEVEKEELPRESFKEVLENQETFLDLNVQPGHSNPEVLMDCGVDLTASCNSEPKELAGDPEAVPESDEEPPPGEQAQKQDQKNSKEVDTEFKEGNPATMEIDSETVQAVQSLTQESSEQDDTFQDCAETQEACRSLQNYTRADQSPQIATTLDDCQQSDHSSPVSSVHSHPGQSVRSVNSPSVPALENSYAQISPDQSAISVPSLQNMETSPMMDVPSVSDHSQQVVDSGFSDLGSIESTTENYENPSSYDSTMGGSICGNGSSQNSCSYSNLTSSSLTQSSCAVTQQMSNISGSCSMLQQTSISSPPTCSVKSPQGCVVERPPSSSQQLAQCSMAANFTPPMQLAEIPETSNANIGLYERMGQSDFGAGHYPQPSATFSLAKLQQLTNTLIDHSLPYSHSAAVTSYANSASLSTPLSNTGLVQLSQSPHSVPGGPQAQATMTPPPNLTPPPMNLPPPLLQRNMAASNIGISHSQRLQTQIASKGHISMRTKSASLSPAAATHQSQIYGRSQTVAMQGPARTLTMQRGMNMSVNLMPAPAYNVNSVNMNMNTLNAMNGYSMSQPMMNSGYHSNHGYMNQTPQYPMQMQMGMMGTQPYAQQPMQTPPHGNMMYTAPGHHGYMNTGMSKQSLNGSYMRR
Description: as §1, §2, §3, §4, §5, §6, §7, §8, §9, §10

KAT5 = target: T3, KAT5 (Homo sapiens, UniProt Q92993); experiment: Inhibition of human KAT enzymes, radioisotope method: KAT5; assay type: biochemical; settings: for Ki: KAT5 (full-length), radioisotope method; for KAT5/ KAT6A / KAT5/ KAT6B: selectivity, ratio of Ki
T3 construct: purchased BPS 79422
T3 sequence (Q92993 whole entry): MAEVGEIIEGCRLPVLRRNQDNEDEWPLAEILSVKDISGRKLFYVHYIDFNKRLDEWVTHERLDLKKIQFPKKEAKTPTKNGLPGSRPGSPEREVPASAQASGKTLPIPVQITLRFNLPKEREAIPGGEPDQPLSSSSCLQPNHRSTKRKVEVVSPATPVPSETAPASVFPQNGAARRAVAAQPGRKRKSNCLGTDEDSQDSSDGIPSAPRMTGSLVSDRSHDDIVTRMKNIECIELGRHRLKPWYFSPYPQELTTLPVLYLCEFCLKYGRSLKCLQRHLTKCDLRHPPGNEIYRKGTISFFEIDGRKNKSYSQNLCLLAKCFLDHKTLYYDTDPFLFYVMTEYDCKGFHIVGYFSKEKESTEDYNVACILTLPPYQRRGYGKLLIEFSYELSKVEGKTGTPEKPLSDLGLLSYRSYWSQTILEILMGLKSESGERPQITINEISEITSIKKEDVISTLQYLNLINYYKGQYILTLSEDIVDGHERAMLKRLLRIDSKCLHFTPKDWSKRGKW
Description: as §1, §2, §3, §4, §5, §6, §7, §8, §9, §10

KAT6A = target: T4, KAT6A (Homo sapiens, UniProt Q92794); experiment: Inhibition of human KAT enzymes, radioisotope method: KAT6A; assay type: biochemical; settings: KAT6A (488-778)
T4 construct: purchased ACTIVE MOTIF 81223
Description: as §1, §2, §3, §4, §5, §6, §7, §8, §9, §10

[1] = Pharmacokinetics in SD (Sprague Dawley) rats; assay type: in vivo; settings: rat, plasma, female SD rats; for clearance: read-out: CL (clearance rate); for half-life: read-out: T1/2 (half-life) (converted); for Vd: read-out: Vdss (apparent volume of distribution); for bioavailability: read-out: F (bioavailability)
Protocol: Test Example 3: Determination of Pharmacokinetic Data of Compounds in SD (Sprague Dawley) Rats
The pharmacokinetic characteristics of some of the compounds of the present disclosure were evaluated by a pharmacokinetic experiment in SD rats.
Female SD rats aged 6-8 weeks from Shanghai Jihui Laboratory Animal Care Co., Ltd. were selected. The test animals were fasted overnight before administration, and feeding was resumed 4 h after administration. The compounds were dissolved in 5% DMSO+5% Tween 80+90% normal saline. For a single intravenous administration, the administration dose was 1 mg/kg, and the administration volume was 2 mL/kg. For a single intragastric administration, the administration dose was 2 mg/kg, and the administration volume was 10 mL/kg. Blood was collected at 0.083 h (for intravenous administration only), 0.25 h, 0.5 h, 1 h, 2 h, 4 h, 8 h, and 24 h after administration. At each indicated time point, about 150 μL of blood sample was collected from each rat via the vein and placed into an EDTA-K2 tube. Each sample was centrifuged (2000 g, 4° C., 5 min) within 15 min after sample collection to obtain plasma, which was then stored at −70° C. until analysis. The concentration of the corresponding test compound in the SD rat plasma was determined using UPLC-MS/MS.

Compound	Ki (KAT7)	KAT7/ KAT6A (KAT7)	KAT7/ KAT6B (KAT7)	Ki (KAT6B)	Ki (KAT5)	KAT5/ KAT6A (KAT5)	KAT5/ KAT6B (KAT5)	Ki (KAT6A)	AUC(0-inf) ([1]; iv, i.v. 1 mg/kg)	clearance ([1]; iv, i.v. 1 mg/kg)	half-life ([1]; iv, i.v. 1 mg/kg)	Vd ([1]; iv, i.v. 1 mg/kg)	AUC(0-inf) ([1]; po, p.o. 2 mg/kg)	bioavailability ([1]; po, p.o. 2 mg/kg)	half-life ([1]; po, p.o. 2 mg/kg)
COc1ccc2c(c1S(=O)(=O)Nc1noc3cc(Cn4cccn4)c(F)c(OC)c13)OCCO2 [Compound 28, N-(6-((1H-Pyrazol-1-yl)methyl)-5-fluoro-4-methoxybenzo[d]isoxazol-3-yl)-6-methoxy-2,3-dihydrobenzo[b][1,4]dioxine-5-sulfonamide]	40.6 nM	203	45	0.9 nM	649 nM	3243	721	0.2 nM	22600 ng·h/mL	0.761 mL/min/kg	5.87 h	0.295 L/kg	42800 ng·h/mL	94.7%	6.73 h
COc1ccc2c(c1S(=O)(=O)Nc1noc3cc(Cn4cccn4)c(F)c(OC)c13)OCCC2=O [Compound 42, N-(6-((1H-Pyrazol-1-yl)methyl)-5-fluoro-4-methoxybenzo[d]isoxazol-3-yl)-7-methoxy-4-oxochromane-8-sulfonamide]									10200 ng·h/mL	1.69 mL/min/kg	3.79 h	0.261 L/kg	11300 ng·h/mL	55%	3.31 h
COc1ccc2c(c1S(=O)(=O)Nc1noc3cc(Cn4cccn4)c(F)c(OC)c13)OCC=C2 [Compound 101, N-(6-((1H-Pyrazol-1-yl)methyl)-5-fluoro-4-methoxybenzo[d]isoxazol-3-yl)-7-methoxy-2H-chromene-8-sulfonamide]	7.39 nM	35	11	0.65 nM	79.6 nM	379	122	0.21 nM	48100 ng·h/mL	0.35 mL/min/kg	8.88 h	0.237 L/kg	89100 ng·h/mL	92.5%	9.21 h

Further lines, results first:

Ki (KAT7)	KAT7/ KAT6A (KAT7)	KAT7/ KAT6B (KAT7)	Ki (KAT6B)	Ki (KAT5)	KAT5/ KAT6A (KAT5)	KAT5/ KAT6B (KAT5)	Ki (KAT6A)	AUC(0-inf) ([1]; iv, i.v. 1 mg/kg)	clearance ([1]; iv, i.v. 1 mg/kg)	half-life ([1]; iv, i.v. 1 mg/kg)	Vd ([1]; iv, i.v. 1 mg/kg)	AUC(0-inf) ([1]; po, p.o. 2 mg/kg)	bioavailability ([1]; po, p.o. 2 mg/kg)	half-life ([1]; po, p.o. 2 mg/kg)	Compound
54.7 nM	116	61	0.9 nM	286 nM	609	318	0.47 nM	90700 ng·h/mL	0.185 mL/min/kg	8.57 h	0.119 L/kg	187000 ng·h/mL	96%	9.73 h	COc1ccc2c(c1S(=O)(=O)Nc1noc3cc(Cn4cccn4)c(F)c(OC)c13)OCCN2C [Compound 109, N-(6-((1H-Pyrazol-1-yl)methyl)-5-fluoro-4-methoxybenzo[d]isoxazol-3-yl)-7-methoxy-4-methyl-3,4-dihydro-2H-benzo[b][1,4]oxazine-8-sulfonamide]
174 nM	458	70	2.49 nM	1850 nM	4880	745	0.38 nM	39200 ng·h/mL	0.462 mL/min/kg	17.2 h	0.608 L/kg	97900 ng·h/mL	144%	13 h	COc1ccc2c(c1S(=O)(=O)Nc1noc3cc(Cn4cccn4)c(F)c(OC)c13)OCCCO2 [Compound 114, N-(6-((1H-Pyrazol-1-yl)methyl)-5-fluoro-4-methoxybenzo[d]isoxazol-3-yl)-7-methoxy-3,4-dihydro-2H-benzo[b][1,4]dioxepine-6-sulfonamide]
493 nM	782	76	6.48 nM	5040 nM	7998	778	0.63 nM	47500 ng·h/mL	0.363 mL/min/kg	14.3 h	0.408 L/kg	109000 ng·h/mL	105%	15.9 h	COc1ccc2c(c1S(=O)(=O)Nc1noc3cc(Cn4cccn4)c(F)c(OC)c13)OCCCN2C [Compound 115, N-(6-((1H-Pyrazol-1-yl)methyl)-5-fluoro-4-methoxybenzo[d]isoxazol-3-yl)-8-methoxy-5-methyl-2,3,4,5-tetrahydrobenzo[b][1,4]oxazepine-9-sulfonamide]
85.7 nM	148	17	5.18 nM	672 nM	1159	130	0.58 nM	28300 ng·h/mL	0.597 mL/min/kg	3.16 h	0.143 L/kg	55500 ng·h/mL	98%	3.79 h	COc1ccccc1S(=O)(=O)Nc1noc2cc(Cn3cccn3)cc(OC)c12 [PF-8144, reference compound]
